What all share (type): functional
One test deals with Escherichia coli. The test can be described thus: Antibacterial activity against Escherichia coli assessed as reduction in bacterial growth after 24 hrs by two-fold serial dilution method.
In test [1] the test system is Staphylococcus epidermidis. In words: Antibacterial activity against Staphylococcus epidermidis assessed as reduction in bacterial growth after 24 hrs by two-fold serial dilution method.
A further test relates to Candida albicans. In words: Antifungal activity against Candida albicans assessed as reduction in […] by two-fold serial dilution method.
The next test deals with Helicobacter pylori. In words: Antibacterial activity against Helicobacter pylori 51 assessed as reduction in microbial growth after 24 hrs by two-fold serial dilution method.

For eleven compounds, MIC and MIC50 results are on record in ChEMBL document CHEMBL4699506, “Polyhalogenation of Isoflavonoids by the Termite-Associated Actinomadura sp. RB99” (2020).

Usually MIC stands for the least concentration at which growth counts as inhibited. Turning to `O=c1c(-c2cc(Cl)c(O)c(Cl)c2)coc2cc(O)ccc12`, the MIC (in the test with Escherichia coli; in test [1]; in the test with Candida albicans) was greater than 50 mg/L each time.

With `O=c1c(-c2ccc(O)cc2)coc2c(Cl)c(O)c(O)c(Cl)c12`, the minimal inhibitory concentration (MIC) (in the test with Escherichia coli; in test [1]; with Candida albicans) was greater than 50 mg/L in each case.

Consider `O=c1c(-c2cc(Cl)c(O)c(Cl)c2)coc2c(Cl)c(O)c(Cl)c(O)c12`, for which the MIC (with Escherichia coli; in test [1]; in the test on Candida albicans) was greater than 50 mg/L in each case.

As to `O=c1c(-c2ccc(O)cc2)coc2c(Cl)c(O)c(Cl)c(O)c12`, the MIC (with Escherichia coli; in test [1]; in the test on Candida albicans) was greater than 50 mg/L in each case.

As a reminder, the MIC50 is an inhibitory concentration at the 50% level, which refers to growth in some studies and to a panel of isolates in others. Consider `O=c1c(-c2cc(Br)c(O)c(Br)c2)coc2c(Br)c(O)c(Br)c(O)c12`, for which, in the test on Helicobacter pylori, the minimum inhibitory concentration (MIC) turned out to be 58.1 mg/L and the MIC50 is 14.5 mg/L.

Regarding `COc1cc2occ(-c3cc(Cl)c(O)c(Cl)c3)c(=O)c2cc1OC`, the MIC (with Escherichia coli; in test [1]; in the test with Candida albicans) was greater than 50 mg/L in each case.

Regarding `O=c1c(-c2cc(Br)c(O)c(Br)c2)coc2c(Br)c(O)ccc12`, in the test on Helicobacter pylori, the MIC came to 35.1 mg/L and the MIC50 is 6.9 mg/L.

Take `COc1cc2c(=O)c(-c3cc(Cl)c(O)c(Cl)c3)coc2c(Cl)c1O`: the MIC (in the test with Escherichia coli; in test [1]; in the test on Candida albicans) was greater than 50 mg/L throughout.

On to `COc1cc2c(=O)c(-c3cc(Cl)c(O)c(Cl)c3)coc2cc1O`, for which the MIC (in the test on Escherichia coli; in test [1]; with Candida albicans) was greater than 50 mg/L in each case.

Turning to `O=c1c(-c2cc(Cl)c(O)c(Cl)c2)coc2c(Cl)c(O)c(Cl)cc12`, the minimum inhibitory concentration (MIC) (in the test with Escherichia coli; in test [1]; in the test on Candida albicans) was greater than 50 mg/L each time.

In the case of `Cc1ncc([N+](=O)[O-])n1CCO` [METRONIDAZOLE], in the test with Helicobacter pylori, the minimal inhibitory concentration (MIC) turned out to be 4.3 mg/L and the MIC50 worked out at 11.8 mg/L.
